{"source": "paper PMC8465942", "about": "“Cyano- and Ketone-Containing Selenoesters as Multi-Target Compounds against Resistant Cancers” (Cancers, 2021)", "note": "Values joined by “and” are separate entries in the source; they are usually repeats but may differ in a detail not shown here. Identical values can stand only once. Marks after values point to notes of the source that are not given here."}
{"molecular_target": "ABCB1 (P-glycoprotein) in Colo 320 colonic adenocarcinoma cells (Homo sapiens, UniProt P08183)", "sequence (P08183 whole entry)": "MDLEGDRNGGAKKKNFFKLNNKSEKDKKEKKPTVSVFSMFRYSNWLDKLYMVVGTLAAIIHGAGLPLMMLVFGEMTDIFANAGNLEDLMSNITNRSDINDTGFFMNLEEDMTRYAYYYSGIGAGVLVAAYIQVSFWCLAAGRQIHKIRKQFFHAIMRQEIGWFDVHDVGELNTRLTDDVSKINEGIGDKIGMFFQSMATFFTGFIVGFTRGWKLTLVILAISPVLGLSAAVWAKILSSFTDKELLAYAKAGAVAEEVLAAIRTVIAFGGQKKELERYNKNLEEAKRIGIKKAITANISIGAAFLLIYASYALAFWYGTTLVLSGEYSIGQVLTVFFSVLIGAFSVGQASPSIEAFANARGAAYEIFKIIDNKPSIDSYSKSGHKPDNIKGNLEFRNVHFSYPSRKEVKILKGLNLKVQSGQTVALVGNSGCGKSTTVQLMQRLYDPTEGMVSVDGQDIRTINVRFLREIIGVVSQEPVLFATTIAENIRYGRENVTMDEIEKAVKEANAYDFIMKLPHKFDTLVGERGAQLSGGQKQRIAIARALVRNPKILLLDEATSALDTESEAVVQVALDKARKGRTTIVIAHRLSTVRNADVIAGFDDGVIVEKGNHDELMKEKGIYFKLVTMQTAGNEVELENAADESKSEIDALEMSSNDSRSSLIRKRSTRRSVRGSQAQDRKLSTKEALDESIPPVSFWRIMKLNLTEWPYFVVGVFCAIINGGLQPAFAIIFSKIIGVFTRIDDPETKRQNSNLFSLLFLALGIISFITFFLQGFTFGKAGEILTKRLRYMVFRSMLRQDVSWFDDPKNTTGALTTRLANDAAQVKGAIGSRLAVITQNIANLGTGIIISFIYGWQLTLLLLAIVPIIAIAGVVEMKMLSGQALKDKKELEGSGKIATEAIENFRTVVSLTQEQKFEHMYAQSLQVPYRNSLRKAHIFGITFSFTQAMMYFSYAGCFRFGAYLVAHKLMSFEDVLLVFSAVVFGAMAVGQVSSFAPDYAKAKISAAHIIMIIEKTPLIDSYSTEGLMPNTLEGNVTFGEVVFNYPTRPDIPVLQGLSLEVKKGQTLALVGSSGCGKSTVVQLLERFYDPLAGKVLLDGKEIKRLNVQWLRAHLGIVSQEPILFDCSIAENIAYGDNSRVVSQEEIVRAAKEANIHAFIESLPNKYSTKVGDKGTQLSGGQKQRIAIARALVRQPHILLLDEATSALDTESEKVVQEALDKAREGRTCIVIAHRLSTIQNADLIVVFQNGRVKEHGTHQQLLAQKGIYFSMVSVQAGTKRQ", "assay": "ABCB1 inhibition, rhodamine 123 accumulation by flow cytometry", "details": "0.2 µM", "experimental": "(§1) The inhibition of the ABCB1 multidrug efflux pump ABCB1 by the tested compounds was evaluated using flow cytometry, measuring the retention of rhodamine 123 by ABCB1 (P-glycoprotein) in Colo 320 colonic adenocarcinoma cells. Briefly, the cell number of colonic adenocarcinoma cells were adjusted to 2 × 10^6 cells/mL, re-suspended in serum-free RPMI-1640 medium in the case of colonic adenocarcinoma cells, and distributed in 0.5 mL aliquots into Eppendorf centrifuge tubes. The tested compounds were added at different concentrations (0.2 and 2 µM; from 1 and 10 mM stock solutions, respectively), and the samples were incubated for 10 min at room temperature. Tariquidar was applied as the positive control (0.2 µM final concentration), and DMSO was used as the solvent control (at 2 v/v%). Next, 10 µL (5.2 µM final concentration) of the fluorochrome rhodamine 123 (Sigma, St. Louis, MO, USA) was added to the samples and the cells were incubated for 20 min at 37 °C. After the incubation period, the cells were washed twice and re-suspended in 0.5 mL PBS for analysis. The fluorescence of the gated cell population was measured with a Partec CyFlow® flow cytometer (Partec, Münster, Germany). The percentage of the mean fluorescence intensity was calculated for the treated MDR cells as compared with the untreated cells. The results were obtained from a representative flow cytometry experiment in which at least 20,000 individual cells of the overall population were evaluated for the rhodamine 123 retained inside the cells. The fluorescence activity ratio (FAR) was calculated based on the following equation, which relates the measured fluorescence values: FAR=Colo320treated / Colo320control/Colo205treated / Colo205control\n(§2) The parameters evaluated from flow cytometry experiments were: Forward Scatter Count (FSC, provides information about cell size); Side Scatter Count (SSC, proportional to cell granularity or internal complexity); FL-1 (Mean fluorescence of the cells), and Fluorescence Activity Ratio (FAR), which was calculated by the equation given above."}
{"smiles": "CC(=O)C[Se]C(=O)c1ccc(F)c(Cl)c1", "note": "[K6, Se-(2-Oxopropyl) 3-Chloro-4-fluorobenzoselenoate]", "FSC (Forward Scatter Count)": 1996, "SSC (Side Scatter Count)": 873}
{"molecular_target": "ABCB1 (P-glycoprotein) in Colo 320 colonic adenocarcinoma cells (Homo sapiens, UniProt P08183)", "assay": "ABCB1 inhibition, rhodamine 123 accumulation by flow cytometry", "details": "0.2 µM; rhodamine 123; FAR above 2 considered effective", "experimental": "as §1, §2"}
{"smiles": "CC(=O)C[Se]C(=O)c1ccc(F)c(Cl)c1", "note": "[K6, Se-(2-Oxopropyl) 3-Chloro-4-fluorobenzoselenoate]", "FAR (fluorescence activity ratio)": 1.48}
{"molecular_target": "ABCB1 (P-glycoprotein) in Colo 320 colonic adenocarcinoma cells (Homo sapiens, UniProt P08183)", "assay": "ABCB1 inhibition, rhodamine 123 accumulation by flow cytometry", "details": "2 µM", "experimental": "as §1, §2"}
{"smiles": "CC(=O)C[Se]C(=O)c1ccc(F)c(Cl)c1", "note": "[K6, Se-(2-Oxopropyl) 3-Chloro-4-fluorobenzoselenoate]", "FSC (Forward Scatter Count)": 1833, "SSC (Side Scatter Count)": 1043}
{"molecular_target": "ABCB1 (P-glycoprotein) in Colo 320 colonic adenocarcinoma cells (Homo sapiens, UniProt P08183)", "assay": "ABCB1 inhibition, rhodamine 123 accumulation by flow cytometry", "details": "2 µM; rhodamine 123; FAR above 2 considered effective", "experimental": "as §1, §2"}
{"smiles": "CC(=O)C[Se]C(=O)c1ccc(F)c(Cl)c1", "note": "[K6, Se-(2-Oxopropyl) 3-Chloro-4-fluorobenzoselenoate]", "FAR (fluorescence activity ratio)": "29.4 and 29.42"}
{"test_system": "MDR Colo 320 adenocarcinoma cells", "assay": "Apoptosis induction (Annexin V-FITC / propidium iodide)", "type": "cell-based, human", "details": "2 µM", "experimental": "(§3) The assay was carried out using an Annexin V-FITC Apoptosis Detection Kit Cat. No. PF 032 from Calbiochem (EMD Biosciences. Inc. La Jolla. CA), according to the manufacturer's instructions. […] The cell suspension was distributed into 1 mL aliquots (1 × 10^6 cells) into a 24-well microplate and incubated overnight at 37 °C, with 5% CO2. On the following day, the medium was removed and a fresh medium was added to the cells. The cells were incubated in the presence of Se-compounds for 3 h at 37 °C. […] After a 3 h induction period, the culture medium was removed, the cells were washed with PBS, and a fresh medium was added to the cells. The 24-well plates were incubated overnight at 37 °C, with 5% CO2. After the incubation, the supernatant was collected in a microfuge tube and 200 μL of 0.25 trypsin (Trypsin-Versene) was added to the wells until the cells detached from the surfaces of the wells. The cells were centrifuged at 2000× g for 2 min at room temperature, the supernatant was removed, and the cells were re-suspended in fresh serum-free medium. After this procedure, apoptosis assay was carried out according to the rapid protocol of the kit using Annexin V-FITC and propidium iodide staining. […] The data were analysed by FlowJo^TM software (BD Biosciences, San Jose, NJ, USA).", "units": {"Total Apoptotic Events (Early + Late, %)": "%"}}
{"smiles": "CC(=O)C[Se]C(=O)c1ccc(F)c(Cl)c1", "note": "[K6, Se-(2-Oxopropyl) 3-Chloro-4-fluorobenzoselenoate]", "Total Apoptotic Events (Early + Late, %)": 32.3}
{"test_system": "MDR Colo 320 adenocarcinoma cells", "assay": "Apoptosis induction (Annexin V-FITC / propidium iodide)", "type": "cell-based, human", "details": "2 µM, 3 h induction", "experimental": "as §3", "units": {"Cell Death (%) Treated Sample-Untreated Sample": "%", "Early Apoptosis (%) Treated Sample-Untreated Sample": "%", "Late Apoptosis (%) Treated Sample-Untreated Sample": "%"}}
{"smiles": "CC(=O)C[Se]C(=O)c1ccc(F)c(Cl)c1", "note": "[K6, Se-(2-Oxopropyl) 3-Chloro-4-fluorobenzoselenoate]", "Cell Death (%) Treated Sample-Untreated Sample": 0.17, "Early Apoptosis (%) Treated Sample-Untreated Sample": 4.5, "Late Apoptosis (%) Treated Sample-Untreated Sample": 27.8}
{"test_system": "MDR Colo 320 adenocarcinoma cells", "assay": "Apoptosis induction (Annexin V-FITC / propidium iodide)", "type": "cell-based, human", "details": "2 µM; total apoptotic events relative to reference M627 (20 µM)", "experimental": "as §3", "units": {"Apoptosis Quotient (%)": "%"}}
{"smiles": "CC(=O)C[Se]C(=O)c1ccc(F)c(Cl)c1", "note": "[K6, Se-(2-Oxopropyl) 3-Chloro-4-fluorobenzoselenoate]", "Apoptosis Quotient (%)": 65.4}
{"test_system": "HaCaT cell line", "assay": "Toxicity on HaCaT cells (IC10 used as dose)", "type": "cell-based", "details": "Homo sapiens, concentration inhibiting 10% of the population, highest non-toxic concentration, read-out: Dose IC10", "experimental": "The activity of selenoesters was tested on several cancer cell lines, including HepG2 (hepatocellular carcinoma, CCL-23TM, ATCC); HeLa (cervical adenocarcinoma, CCL-2TM, ATCC); B16 (skin melanoma, CCL-6322TM, ATCC); and a non-cancerous cell line, HDF (human dermal fibroblasts, Sigma-Aldrich). HepG2, HeLa, B16, and HDF cell lines were cultivated in EMEM medium supplemented with 10% FBS, 2 mM L-glutamine, and 1% penicillin-streptomycin mixture. The HaCaT cell line was cultivated in DMEM medium supplemented with 10% FBS and 1% penicillin-streptomycin mixture. All of the cells were cultivated in a CO2 incubator (5% CO2, 37 °C). Twice per week, the cell lines were passaged according to a standardized protocol with a trypsin-EDTA solution. […]\nWound healing activity of selenoesters was evaluated as the ability of the cells to migrate and close the gap created on the monolayer of human keratinocytes (HaCaT cell line). The tested substances were applied in the highest possible non-toxic concentration (IC10, concentration inhibiting 10% of the population). In general, ketone-selenoesters were more toxic (except K4 and K1) than cyano-selenoesters (except N4); therefore, they were applied at lower doses (0.17–0.30 µM) when compared to cyanoselenoesters (0.36–0.64 µM). Compounds K1, K4, and N4 were applied at a concentration of 0.30, 0.46, and 0.20 µM, respectively. As could be seen in Table 8, all ketone-selenoesters stimulated wound healing more effectively in comparison to both untreated control (p < 0.0000005) and allantoin (p < 0.00005). […] Only samples N1, N2, N4, and N7 closed effectively the damaged wound in 24 h, with the gap closure around 70%.", "units": {"IC10": "nM"}}
{"smiles": "CC(=O)C[Se]C(=O)c1ccc(F)c(Cl)c1", "note": "[K6, Se-(2-Oxopropyl) 3-Chloro-4-fluorobenzoselenoate]", "IC10": 220}
{"smiles": "N#CC[Se]C(=O)c1cccc(F)c1", "note": "[N2, Se-(Cyanomethyl) 3-Fluorobenzoselenoate]", "IC10": 360}
{"smiles": "N#CC[Se]C(=O)c1ccc(Br)cc1", "note": "[N3, Se-(Cyanomethyl) 4-Bromobenzoselenoate]", "IC10": 640}
{"smiles": "N#CC[Se]C(=O)c1ccccc1C(F)(F)F", "note": "[N4, Se-(Cyanomethyl) 2-(Trifluoromethyl)benzoselenoate]", "IC10": 200}
{"smiles": "N#CC[Se]C(=O)c1cc(C(F)(F)F)cc(C(F)(F)F)c1", "note": "[N7, Se-(Cyanomethyl) 3,5-Bis(trifluoromethyl)benzoselenoate]", "IC10": 610}
{"test_system": "not given", "assay": "not given", "details": "not given", "units": {"melting point": "°C"}}
{"smiles": "N#CC[Se]C(=O)c1ccc(Br)cc1", "note": "[N3, Se-(Cyanomethyl) 4-Bromobenzoselenoate]", "melting point": "105 to 107"}
{"smiles": "N#CC[Se]C(=O)c1ccccc1C(F)(F)F", "note": "[N4, Se-(Cyanomethyl) 2-(Trifluoromethyl)benzoselenoate]", "melting point": "65 to 67"}
{"smiles": "N#CC[Se]C(=O)c1cc(C(F)(F)F)cc(C(F)(F)F)c1", "note": "[N7, Se-(Cyanomethyl) 3,5-Bis(trifluoromethyl)benzoselenoate]", "melting point": "63 to 65"}
{"test_system": "HepG2 (hepatocellular carcinoma)", "assay": "Cytotoxicity on HepG2 cells", "type": "cell-based, human", "details": "ratio IC50 non-tumour cells / IC50 cancer cells"}
{"smiles": "N#CC[Se]C(=O)c1cccc(F)c1", "note": "[N2, Se-(Cyanomethyl) 3-Fluorobenzoselenoate]", "SI MRC-5/HepG2": ">6 *"}
{"smiles": "N#CC[Se]C(=O)c1ccc(Br)cc1", "note": "[N3, Se-(Cyanomethyl) 4-Bromobenzoselenoate]", "SI MRC-5/HepG2": ">6 *"}
{"smiles": "N#CC[Se]C(=O)c1ccccc1C(F)(F)F", "note": "[N4, Se-(Cyanomethyl) 2-(Trifluoromethyl)benzoselenoate]", "SI MRC-5/HepG2": ">6 *"}
{"smiles": "N#CC[Se]C(=O)c1cc(C(F)(F)F)cc(C(F)(F)F)c1", "note": "[N7, Se-(Cyanomethyl) 3,5-Bis(trifluoromethyl)benzoselenoate]", "SI MRC-5/HepG2": ">6 *"}
{"test_system": "B16 (skin melanoma)", "assay": "Cytotoxicity on B16 cells", "type": "cell-based, murine", "details": "ratio IC50 non-tumour cells / IC50 cancer cells"}
{"smiles": "CC(=O)C[Se]C(=O)c1ccc(F)c(Cl)c1", "note": "[K6, Se-(2-Oxopropyl) 3-Chloro-4-fluorobenzoselenoate]", "SI MRC-5/B16": 2.8}
{"smiles": "N#CC[Se]C(=O)c1cccc(F)c1", "note": "[N2, Se-(Cyanomethyl) 3-Fluorobenzoselenoate]", "SI MRC-5/B16": ">6 *"}
{"smiles": "N#CC[Se]C(=O)c1ccc(Br)cc1", "note": "[N3, Se-(Cyanomethyl) 4-Bromobenzoselenoate]", "SI MRC-5/B16": ">6 *"}
